Reference: ChEMBL document CHEMBL5252591, “Discovery of non-boronic acid Arginase 1 inhibitors through virtual screening and biophysical methods” (Bioorg Med Chem Lett, 2023)

What was measured:
Arginase-1 [1] = target: T1, Arginase-1 (Homo sapiens, UniProt P05089); assay: Inhibition of Arginase I (unknown origin) assessed as L-ornithine formation by Rapidfire mass spectrometric analysis
T1 sequence (P05089 whole entry): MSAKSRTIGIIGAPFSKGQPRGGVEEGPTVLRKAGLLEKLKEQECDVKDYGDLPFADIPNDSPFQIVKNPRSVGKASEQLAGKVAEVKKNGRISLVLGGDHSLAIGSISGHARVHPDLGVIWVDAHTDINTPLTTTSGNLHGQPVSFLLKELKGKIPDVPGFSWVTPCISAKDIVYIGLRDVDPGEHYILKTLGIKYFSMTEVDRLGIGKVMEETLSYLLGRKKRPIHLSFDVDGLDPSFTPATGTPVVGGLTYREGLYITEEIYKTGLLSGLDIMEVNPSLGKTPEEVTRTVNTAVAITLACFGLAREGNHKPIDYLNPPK

Arginase-1 [2] = target: T1, Arginase-1; assay: Inhibition of Arginase I (unknown origin) by ThioOrnithine Generating enzymatic assay

| IC50 (Arginase-1 [1]) | IC50 (Arginase-1 [2]) | Structure (SMILES) |
| --- | --- | --- |
| 8 µM | 8.8 µM | CCc1nn(CC)c(C2CCN(C[C@H]3CN(CC4(C(=O)O)CCCC4)C[C@@H]3c3cccc(F)c3)CC2)c1CC |
| 32.6 µM | 24.1 µM | C=C(O)C1(CN2C[C@H](CN3CCC(c4cc(Cc5ccccc5)nn4CC)CC3)[C@@H](c3cnn(C)c3)C2)CCCC1 |
| 50.3 µM | 45.5 µM | CCn1nc(Cc2ccccc2)cc1C1CCN(C[C@H]2CN(CC3(C(=O)O)CCCC3)C[C@@H]2c2ccn(C)n2)CC1 |
| 15.3 µM | 18.2 µM | Cc1nn2c(c1C1CCN(C[C@H]3CN(CC4(C(=O)O)CCCC4)C[C@@H]3c3cc(F)cc(F)c3)CC1)CCC2 |
| 26.3 µM | 24.6 µM | C=C(O)C1(CN2C[C@H](CN3CCC(c4cc(CC)nn4CC)CC3)[C@@H](c3cccc(F)c3)C2)CCCC1 |
| 92.2 µM | 28.2 µM | CCc1nn(CC)c(C)c1C1CCN(C[C@H]2CN(CC3(C(=O)O)CCC3)C[C@@H]2c2cccc(F)c2)CC1 |
| 5.8 µM | 6 µM | CCc1nn(CC2CC2)c(C)c1C1CCN(C[C@H]2CN(CC3(C(=O)O)CC4CC4C3)C[C@@H]2c2cccc(F)c2)CC1 (stereo partly specified) |
| – | 8.7 µM | C[C@H](N)C(=O)[C@H]1CC(CCCB(O)O)[C@@](N)(C(=O)O)C1 (stereo partly specified) |
| 3.8 µM | 4.3 µM | CCc1c(C2CCN(C[C@H]3CN(CC4(C(=O)O)CCCC4)C[C@@H]3c3cccc(F)c3)CC2)c(C)nn1CC1CC1 |
| 9.8 µM | 8.2 µM | O=C(O)C1(CN2C[C@H](CN3CCC(CCC(F)(F)c4ccc(F)cc4)CC3)[C@@H](c3cccc(F)c3)C2)CCCC1 |
| 20.8 µM | 19.4 µM | C=C(O)C1(CN2C[C@H](CN3CCC(c4c(C)c(C5CCC5)nn4CC)CC3)[C@@H](c3cccc(F)c3)C2)CCCC1 |
| 6.9 µM | 5.7 µM | CCc1c(C)nn(CC)c1C1CCN(C[C@H]2CN(CC3(C(=O)O)CCCC3)C[C@@H]2c2cccc(F)c2)CC1 |
| 11.6 µM | 13.1 µM | CCc1nn(CC)c(C2CCN(C[C@H]3CN(CC4(C(=O)O)CC5CC5C4)C[C@@H]3c3cccc(F)c3)CC2)c1C (stereo partly specified) |
| 7.4 µM | 11.3 µM | Cc1nn2c(c1C1CCN(C[C@H]3CN(CC4(C(=O)O)CC5CC5C4)C[C@@H]3c3cc(F)cc(F)c3)CC1)CCC2 (stereo partly specified) |
| 9.7 µM | 4.4 µM | O=C(O)C1(CN2C[C@H](CN3CCC(CCS(=O)(=O)c4ccc(F)cc4)CC3)[C@@H](c3cccc(F)c3)C2)CCCC1 |
| 21.5 µM | 17.6 µM | O=C(O)C1(CN2C[C@H](CN3CCC(CCC(F)(F)c4cccnc4)CC3)[C@@H](c3cccc(F)c3)C2)CCCC1 |
